From patent US20220064167A1, “IMIDAZO-PYRAZOLE CARBOXAMIDE DERIVATIVES AS ANTICANCER AGENTS AND THE SYNTHESIS THEREOF” (AVIDIN KFT., priority 2018, published 2022) come the findings set out here.

Usually melting point stands for the temperature, or range, at which the solid turns liquid. In general, IC50 refers to the concentration at which inhibition is half-maximal. Read a low IC50 as greater potency in that assay.

For data set [1], the system named is human breast adenocarcinoma cell line, MCF-7. The data set can be described thus: resazurin viability assay, 72 h (Table 1). Format: cell-based. The note with it: MCF7, 72h incubation, 156 nM-100 μM. The text has this: (§1) In our experiments three different cell lines were used. Cells were purchased from the American Type Culture Collection (ATCC, Manassas, Va., USA). The human breast adenocarcinoma cell line, MCF-7 cells were maintained in Dulbecco's Modified Eagle Medium/Nutrient Mixture F-12 (DMEM/F12) 10% fetal calf serum (FCS, Gibco) and mouse mammary carcinoma 4T1 and human promyelocytic leukemia, HL-60 cells were maintained in Roswell Park Memorial Institute 1640 medium (RPMI-1640) 10% FCS. Media were supplemented with 2 mM GlutaMAX, and 100 U/mL penicillin, 100 μg/mL streptomycin (Life Technologies, Carlsbad, Calif., USA). Cell cultures were maintained at 37° C. in a humidified incubator in an atmosphere of 5% CO2 (Sanyo, Japan).
(§2) For viability assays cells were seeded in 96 well plates (MCF7 and 4T1: 6000, HL60: 120.000 cells/well) and incubated overnight. Compounds were dissolved in dimethyl sulfoxide (DMSO). Cells were treated with an increasing concentration of compounds having the general formula (I.) (156 nM-100 μM). Cell viability was determined after 72h incubation. Resazurin reagent (Sigma-Aldrich) was dissolved in PBS (pH 7.4) at 0.15 mg/ml concentration, sterile filtered (0.22 μm, Merck Millipore) and aliquoted at −20° C. Resazurin reagent (Sigma-Aldrich) was added at a final concentration of 25 μg/ml. After 2 hours incubation at 37° C. 5% CO2 fluorescence (530 nm excitation/580 nm emission) was recorded on a multimode microplate reader (Cytofluor4000, PerSeptive Biosytems). Viability was calculated with relation to untreated control cells and blank wells containing media without cells. IC50 values (50% inhibiting concentration) were calculated by GraphPad Prism® 5 (La Jolla, Calif., USA).
(Alamar Blue is a resazurin reagent that responds to reducing activity.)

In data set [2] the test system is human promyelocytic leukemia, HL-60 cells. Description: resazurin viability assay, 72 h (Table 1). Conditions: 72h incubation, 156 nM-100 μM. Format: cell-based.
Text: as §1, §2

In data set [3] the test system is mouse mammary carcinoma 4T1. Description: resazurin viability assay, 72 h (Table 1). The format is cell-based. The note with it: 72h incubation, 156 nM-100 μM.
Text: as §1, §2

The molecule `CC(C)(C)Nc1c(-c2ccccc2)[nH]c2c(C(N)=O)cnn12` [Example 1, 3-(Tert-butylamino)-2-phenyl-1H-imidazo[1,2-b]pyrazole-7-carboxamide] gave a melting point of 246 to 248 °C. With `CC(C)(C)CC(C)(C)Nc1c(-c2ccccc2)[nH]c2c(C(N)=O)cnn12` [Example 2, 2-Phenyl-3-((2,4,4-trimethylpentan-2-yl)amino)-1H-imidazo[1,2-b]pyrazole-7-carbox-amide], the melting point was in the range of 154 to 156 °C. Same read-out and setting: with `COC(=O)CNc1c(-c2ccccc2)[nH]c2c(C(N)=O)cnn12` [Example 3, Methyl 2-((7-carbamoyl-2-phenyl-1H-imidazo[1,2-b]pyrazol-3-yl)amino)acetate] the figure was 209 to 210 °C; with `NC(=O)c1cnn2c(NC3CCCCC3)c(-c3ccccc3)[nH]c12` [Example 4, 3-(Cyclohexylamino)-2-phenyl-1H-imidazo[1,2-b]pyrazole-7-carboxamide], 240 to 241 °C. `COc1ccc(Nc2c(-c3ccccc3)[nH]c3c(C(N)=O)cnn23)cc1` [Example 5, 3-((4-Methoxyphenyl)amino)-2-phenyl-1H-imidazo[1,2-b]pyrazole-7-carboxamide] registered a melting point of 229 to 231 °C. For `Cc1ccc(-c2[nH]c3c(C(N)=O)cnn3c2NC(C)(C)CC(C)(C)C)cc1` [Example 6, 2-(p-Tolyl)-3-((2,4,4-trimethylpentan-2-yl)amino)-1H-imidazo[1,2-b]pyrazole-7-carbox-amide], the melting point fell in the range of 218 to 219 °C. Moreover, in data set [1], the IC50 is 17 µM. In data set [2], this molecule gave a half-inhibitory concentration (IC50) of 12.6 µM. For the same molecule, in data set [3], the IC50 was 12.3 µM. Regarding `COc1ccc(-c2[nH]c3c(C(N)=O)cnn3c2NC(C)(C)CC(C)(C)C)cc1` [Example 7, 2-(4-Methoxyphenyl)-3-((2,4,4-trimethylpentan-2-yl)amino)-1H-imidazo[1,2-b]pyrazole-7-carboxamide], the melting point fell in the range of 124 to 125 °C. Moreover, in data set [1], the IC50 amounted to 18.6 µM. This molecule came in with an IC50 in data set [2] of 19 µM. This molecule returned an IC50 in data set [3] of 25.2 µM.

`COc1cc(-c2[nH]c3c(C(N)=O)cnn3c2NC(C)(C)CC(C)(C)C)ccc1OC(C)=O` [Example 8, 4-(7-Carbamoyl-3-((2,4,4-trimethylpentan-2-yl)amino)-1H-imidazo[1,2-b]pyrazol-2-yl)-2-methoxyphenyl acetate] came in with a melting point of 190 to 191 °C. The same molecule displayed an IC50 in data set [1] of 40.6 µM. Besides, the IC50 in data set [2] was determined as 26.6 µM. Half-maximal inhibition in data set [3] (IC50) required 34.1 µM. On to `COC(=O)CNc1c(-c2c(OC)cc(OC)cc2OC)[nH]c2c(C(N)=O)cnn12` [Example 9, Methyl 2-((7-carbamoyl-2-(2,4,6-trimethoxyphenyl)-1H-imidazo[1,2-b]pyrazol-3-yl)amino)acetate], for which the melting point was in the range of 226 to 227 °C. Take `CC(C)(C)CC(C)(C)Nc1c(-c2ccc(F)cc2)[nH]c2c(C(N)=O)cnn12` [Example 10, 2-(4-Fluorophenyl)-3-((2,4,4-trimethylpentan-2-yl)amino)-1H-imidazo[1,2-b]pyrazole-7-carboxamide]: the melting point was in the range of 229 to 230 °C. For the same molecule, the IC50 in data set [1] is above 50 µM. This molecule came in with an IC50 in data set [2] of 17.5 µM. Further, in data set [3], the IC50 was above 50 µM.

`COC(=O)CNc1c(-c2ccc(F)cc2)[nH]c2c(C(N)=O)cnn12` [Example 11, Methyl 2-((7-carbamoyl-2-(4-fluorophenyl)-1H-imidazo[1,2-b]pyrazol-3-yl)amino)acetate] gave a melting point of 229 to 230 °C. This molecule showed an IC50 in data set [1] above 50 µM. 15.9 µM corresponded to half-maximal inhibition in data set [2] (IC50). For the same molecule, the IC50 in data set [3] was above 50 µM. For the molecule `CC(C)(C)CC(C)(C)Nc1c(-c2ccc(C(F)(F)F)cc2)[nH]c2c(C(N)=O)cnn12` [Example 12, 2-(4-(Trifluoromethyl)phenyl)-3-((2,4,4-trimethylpentan-2-yl)amino)-1H-imidazo[1,2-b]pyrazole-7-carboxamide], the melting point was in the range of 192 to 193 °C. Moreover, in data set [1], the IC50 was 12.7 µM. In addition, half-maximal inhibition in data set [2] (IC50) required 13.2 µM. In data set [3], the IC50 amounted to 20.9 µM. As to `CC(C)(C)Nc1c(-c2ccc(F)c(F)c2)[nH]c2c(C(N)=O)cnn12` [Example 13, 3-(Tert-butylamino)-2-(3,4-difluorophenyl)-1H-imidazo[1,2-b]pyrazole-7-carboxamide], the melting point lay within 256 to 258 °C.

The molecule `CC(C)(C)CC(C)(C)Nc1c(-c2cccnc2)[nH]c2c(C(N)=O)cnn12` [Example 14, 2-(Pyridin-3-yl)-3-((2,4,4-trimethylpentan-2-yl)amino)-1H-imidazo[1,2-b]pyrazole-7-carboxamide] showed a melting point of 226 to 228 °C.

As for `CCCCCCCc1[nH]c2c(C(N)=O)cnn2c1NC(C)(C)C` [Example 17, 3-(Tert-butylamino)-2-heptyl-1H-imidazo[1,2-b]pyrazole-7-carboxamide], the melting point lay in the range of 203 to 204 °C. Molecule `CC(C)(C)CC(C)(C)Nc1c(C(C)(C)C)[nH]c2c(C(=O)NC(C)(C)C)cnn12` [Example 30, N,2-Di-tert-butyl-3-((2,4,4-trimethylpentan-2-yl)amino)-1H-imidazo[1,2-b]pyrazole-7-carboxamide] showed a melting point of 177 to 178 °C. The molecule `CC(C)(C)CC(C)(C)Nc1c(C(C)(C)C)[nH]c2c(C(=O)NC3CCCC3)cnn12` [Example 32, 2-(Tert-butyl)-N-cyclopentyl-3-((2,4,4-trimethylpentan-2-yl)amino)-1H-imidazo[1,2-b]pyrazole-7-carboxamide] showed a melting point of 182 to 183 °C. Still for that read-out and setting: with `Cc1cc(C)cc(NC(=O)c2cnn3c(NC(C)(C)CC(C)(C)C)c(C(C)(C)C)[nH]c23)c1` [Example 41, 2-(Tert-butyl)-N-(3,5-dimethylphenyl)-3-((2,4,4-trimethylpentan-2-yl)amino)-1H-imidazo[1,2-b]pyrazole-7-carboxamide] the figure was 180 to 181 °C.

`CC(C)c1ccc(NC(=O)c2cnn3c(NC(C)(C)CC(C)(C)C)c(C(C)(C)C)[nH]c23)cc1` [Example 42, 2-(Tert-butyl)-N-(4-isopropylphenyl)-3-((2,4,4-trimethylpentan-2-yl)amino)-1H-imidazo[1,2-b]pyrazole-7-carboxamide] yielded a melting point of 155 to 156 °C. Take `COc1ccc(NC(=O)c2cnn3c(NC(C)(C)CC(C)(C)C)c(C(C)(C)C)[nH]c23)c(OC)c1` [Example 44, 2-(Tert-butyl)-N-(2,4-dimethoxyphenyl)-3-((2,4,4-trimethylpentan-2-yl)amino)-1H-imidazo[1,2-b]pyrazole-7-carboxamide]: the melting point worked out at 127 °C.

As to `CC(C)(C)CC(C)(C)Nc1c(C(C)(C)C)[nH]c2c(C(=O)Nc3ccccc3C(F)(F)F)cnn12` [Example 45, 2-(Tert-butyl)-N-(2-(trifluoromethyl)phenyl)-3-((2,4,4-trimethylpentan-2-yl)amino)-1H-imidazo[1,2-b]pyrazole-7-carboxamide], the melting point was found to be 106 °C. `CC(C)(C)CC(C)(C)Nc1c(C(C)(C)C)[nH]c2c(C(=O)Nc3ccc(Cl)cc3)cnn12` [Example 51, 2-(Tert-butyl)-N-(4-chlorophenyl)-3-((2,4,4-trimethylpentan-2-yl)amino)-1H-imidazo[1,2-b]pyrazole-7-carboxamide]: the IC50 in data set [1] amounted to 29.3 µM; in data set [2] it was 3.05 µM; in data set [3], 30.7 µM.

As to `CC(C)(C)CC(C)(C)Nc1c(C(C)(C)C)[nH]c2c(C(=O)NCc3ccc(F)cc3)cnn12` [Example 71, 2-(Tert-butyl)-N-(4-fluorobenzyl)-3-((2,4,4-trimethylpentan-2-yl)amino)-1H-imidazo[1,2-b]pyrazole-7-carboxamide], the melting point was 163 to 164 °C. `CC(C)(C)CC(C)(C)Nc1c(C(C)(C)C)[nH]c2c(C(=O)Nc3ccc(F)cn3)cnn12` [Example 72, 2-(Tert-butyl)-N-(5-fluoropyridin-2-yl)-3-((2,4,4-trimethylpentan-2-yl)amino)-1H-imidazo[1,2-b]pyrazole-7-carboxamide] came in with a melting point of 140 °C.

Take `CC(C)(C)CC(C)(C)Nc1c(C(C)(C)C)[nH]c2c(C(=O)Nc3ccc(F)nc3)cnn12` [Example 73, 2-(Tert-butyl)-N-(6-fluoropyridin-3-yl)-3-((2,4,4-trimethylpentan-2-yl)amino)-1H-imidazo[1,2-b]pyrazole-7-carboxamide]: the melting point lay within 177 to 178 °C. `Cc1nn2c(NC(C)(C)CC(C)(C)C)c(C(C)(C)C)[nH]c2c1C(=O)Nc1ccc(F)cc1` [Example 74, 2-(Tert-butyl)-N-(4-fluorophenyl)-6-methyl-3-((2,4,4-trimethylpentan-2-yl)amino)-1H-imidazo[1,2-b]pyrazole-7-carboxamide] registered a melting point of 179 °C.
